# According to patent US9452220B2, “Coupling compounds of NSAID anti-inflammatory and analgesic drugs and EGFR kinase inhibitors, synthesis methods and applications thereof” (Guangzhou Institutes of Biomedicine and Health, Chinese …, priority 2014, dated 2016):
# Assays:
# [1] = tested on: HCC827 human non-small cell lung cancer cells; assay: MTT cell activity assay, HCC827 cells; assay type: cell-based; conditions: 72 hrs with compound, absorption at 570 nm or 490 nm
# Method: (§1) H1975/HCC827: human non-small cell lung cancer cells, PBS, MTT, DMEM culture medium, pancreatin, a multichannel pipette, a vortex mixer, a microplate reader, a biosafety cabinet, a 5% CO2 cell culture incubator, a cell counter, a microscope, a thermostatic water bath, and a 96-pore plate.
# (§2) 1. H1975/HCC827 cells was cleaned with PBS, digested with pancreatin, centrifuged at room temperature for 5 min at 1000 rpm, re-suspended with an appropriate amount of culture medium, and counted by a cell counting plate. The cells were inoculated to the 96-pore plate by the multichannel pipette at 1000-2000 cells/pore/100 μl, with 6 complex pores for each concentration and totally 6 concentration gradients. The basis of the number of cells: upon final test, OD570 was between 0.2-0.8 (Lambert-Beer's Law).
# (§3) 2. The compounds were prepared into […] of mother liquor by using DMSO. 10 μl of mother liquor was added into 90 μl of DMSO, and the mixture was uniformly mixed by the vortex mixer and diluted in turn for 5 times to obtain DMSO stock solution. The stock solution was stored at 4° C. for standby. The stock solution was uniformly mixed again before use and then added into a complete culture medium in 1:500 to serve as working solution, and then the mixture was mixed uniformly by the vortex mixer. The working solution needs to be immediately used after prepared well to avoid precipitation after long-term storage.
# (§4) 3. The 96-pore plate was cultured in the cell incubator for 24 hrs, then added with 100 μl of the working solution prepared from the compounds, and continued to be cultured together for 72 hrs.
# (§5) 4. The upper-layer culture medium was removed carefully, then 100 μl of culture medium containing MTT (0.5 mg/ml) was added again, and the culture medium was placed in the incubator for 4 hrs. The culture medium was removed completely, then 100 μl of DMSO was added, and the mixture was shocked uniformly. Preparation of MTT: 1.25 g of MTT was added into 250 ml of PBS, and then the mixture was mixed uniformly and stored away from light at 4° C.
# (§6) 5. The light absorption value at 570 nm or 490 nm was detected by the microplate reader. EC50 was calculated and an added value curve was drawn by Graphpad.
# [2] = tested on: H1975 human non-small cell lung cancer cells; assay: MTT cell activity assay, H1975 cells; assay type: cell-based; conditions: NCI-H1975, 72 hrs with compound, absorption at 570 nm or 490 nm
# Method: as §1, §2, §3, §4, §5, §6
SMILES,EC50 [1],EC50 [2]
"C#Cc1cccc(Nc2ncnc3cc(OCCOC)c(OCCOC(=O)c4ccccc4OC(C)=O)cc23)c1 [Embodiment 3, 2-(4-(3-ethynylaniline)-7-(2-methoxyethoxy)quinazoline-6-oxy)ethyl-2-acetoxybenzoic acid]",0.16 µM,12.2 µM
C#Cc1cccc(Nc2ncnc3cc(OCCOC)c(OCCOC(=O)C4=Cc5cc(Cl)c(C(C)(C)C)cc5OC4C(F)(F)F)cc23)c1 (stereo not shown) [Embodiment 4],0.61 µM,32.9 µM
"C#Cc1cccc(Nc2ncnc3cc(OCCOC(=O)C(C)c4ccc(CC(C)C)cc4)c(OCCOC)cc23)c1 (stereo not shown) [Embodiment 10, 2-(4-(3-ethynylaniline)-6-(2-methoxyethoxy)quinazoline-7-oxy)ethyl-2-(4-isobutylphenyl)propanoic acid]",0.28 µM,8.65 µM
"C#Cc1cccc(Nc2ncnc3cc(OCCOC(=O)c4ccccc4OC(C)=O)c(OCCOC)cc23)c1 [Embodiment 11, 2-(4-(3-ethynylaniline)-6-(2-methoxyethoxy)quinazoline-7-oxy)ethyl-2-acetoxyl benzoic acid]",0.13 µM,13.8 µM
"C#Cc1cccc(Nc2ncnc3cc(OCCOC(=O)C(C)c4ccc5cc(OC)ccc5c4)c(OCCOC)cc23)c1 (stereo not shown) [Embodiment 13, 2-(4-(3-ethynylaniline)-6-(2-methoxyethoxy)quinazoline-7-oxy)ethyl-2-(6-methoxylnaphthyl-2-ene)propanoic acid]",0.09 µM,27.2 µM
"C#Cc1cccc(Nc2ncnc3cc(OCCOC(=O)Cc4c(C)n(C(=O)c5ccc(Cl)cc5)c5ccc(OC)cc45)c(OCCOC)cc23)c1 [Embodiment 14, 3-(4-(3-ethynylaniline)-6-(2-methoxyethoxy)quinazoline-7-oxy)ethyl-2-(1-(4-chlorobenzoyl)-5-methoxy-2-methyl-1H-indol-3-ene)acetic acid]",0.63 µM,95.8 µM
"C#Cc1cccc(Nc2ncnc3cc(OCCOC(=O)C(C)c4ccc(C(=O)c5ccccc5)cc4)c(OCCOC(=O)C(C)c4ccc(C(=O)c5ccccc5)cc4)cc23)c1 (stereo not shown) [Embodiment 17, 2,2′-(4-(3-ethynylaniline)quinazoline-6,7-diene)di(oxy)bis(ethyl-2,1-diene)-bis(2-(4-benzoylphenyl)propanoic acid)]",1.5 µM,
"C#Cc1cccc(Nc2ncnc3cc(OCCOC(=O)C(C)c4ccc(CC(C)C)cc4)c(OCCOC(=O)C(C)c4ccc(CC(C)C)cc4)cc23)c1 (stereo not shown) [Embodiment 18, 2,2′-(4-(3-ethynylaniline)quinazoline-6,7-diene)di(oxy)bis(ethyl-2,1-diene)-bis(2-(4-isobutylphenyl)propanoic acid)]",,805 µM
"C#Cc1cccc(Nc2ncnc3cc(OCCOC(=O)c4ccccc4OC(C)=O)c(OCCOC(=O)c4ccccc4OC(C)=O)cc23)c1 [Embodiment 19, 2,2′-(4-(3-ethynylaniline)quinazoline-6,7-diene)di(oxy)bis(ethyl-2,1-diene)-bis(2-acetoxylbenzoic acid)]",0.2 µM,41.7 µM
"C#Cc1cccc(Nc2ncnc3cc(OCCOC(=O)C4=Cc5cc(Cl)c(C(C)(C)C)cc5OC4C(F)(F)F)c(OCCOC(=O)C4=Cc5cc(Cl)c(C(C)(C)C)cc5OC4C(F)(F)F)cc23)c1 (stereo not shown) [Embodiment 21, 2,2′-(4-(3-ethynylaniline)quinazoline-6,7-diene)di(oxy)bis(ethyl-2,1-diene)-bis(7-7-tert-butyl-6-chloro-2-(trifluoromethyl)-2H-pyran-3-carboxylic acid)]",1.05 µM,75.6 µM
"C#Cc1cccc(Nc2ncnc3cc(OCCOC(=O)Cc4c(C)n(C(=O)c5ccc(Cl)cc5)c5ccc(OC)cc45)c(OCCOC(=O)Cc4c(C)n(C(=O)c5ccc(Cl)cc5)c5ccc(OC)cc45)cc23)c1 [Embodiment 22, 2,2′-(4-(3-ethynylaniline)quinazoline-6,7-diene)di(oxy)bis(ethyl-2,1-diene)-bis(2-(1-(4-chlorobenzoyl)-5-methoxy-2-methyl-1H-indol-3-ene)acetic acid)]",3.62 µM,55.3 µM
"C#Cc1cccc(Nc2ncnc3cc(OCCOC(=O)c4ccc(C(=O)Nc5ccc6c(c5)C(C)(C)CCC6(C)C)cc4)c(OCCOC(=O)c4ccc(C(=O)Nc5ccc6c(c5)C(C)(C)CCC6(C)C)cc4)cc23)c1 [Embodiment 24, 2,2′-(4-(3-ethynylaniline)quinazoline-6,7-diene)di(oxy)bis(ethyl-2,1-diene)-bis(4-(5,5,8,8-tetramethyl-5,6,7,8-tetralin-2-alkenylcarbamyl)benzoic acid)]",1.14 µM,52.9 µM
